Assay results from ChEMBL document CHEMBL1201862, “PubChem BioAssay data set” (2004).
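Grown in 96-well plates, cells were treated for 48 hours with each compound at five concentrations. Insufficient inhibition: endpoint recorded as highest concentration tested. GI50: concentration for 50% inhibition of growth.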 Calls of active or inactive are those of the source. Rule as the data show it: active = GI50 up to about 1.1 µM and inactive = higher.

Experiments:
Assay in all cases: NCI anticancer screen, dose series, 48 h
SF-295 = test system: SF-295
SK-MEL-5 = test system: SK-MEL-5
OVCAR-8 = test system: OVCAR-8
NCI-H23 = test system: NCI-H23
LOX IMVI = test system: LOX IMVI
CCRF-CEM = test system: CCRF-CEM
SK-MEL-2 = test system: SK-MEL-2
HCC 2998 = test system: HCC 2998
IGROV-1 = test system: IGROV-1
DMS-273 = test system: DMS-273
NCI-H522 = test system: NCI-H522
ACHN = test system: ACHN
KM-20L2 = test system: KM-20L2
XF498 = test system: XF498
RPMI-8226 = test system: RPMI-8226
UACC-62 = test system: UACC-62
786-0 = test system: 786-0
Malme-3M = test system: Malme-3M
UO-31 = test system: UO-31
SF-268 = test system: SF-268
MOLT-4 = test system: MOLT-4
M14 = test system: M14
SR = test system: SR
OVCAR-4 = test system: OVCAR-4
NCI-H460 = test system: NCI-H460
KM12 = test system: KM12
K562 = test system: K562
COLO 205 = test system: COLO 205
M19-MEL = test system: M19-MEL
SK-MEL-28 = test system: SK-MEL-28
LXFL 529 = test system: LXFL 529
OVCAR-5 = test system: OVCAR-5
HT-29 = test system: HT-29
NCI-H226 = test system: NCI-H226
SNB-19 = test system: SNB-19
OVCAR-3 = test system: OVCAR-3
EKVX = test system: EKVX
HCT-15 = test system: HCT-15
DMS-114 = test system: DMS-114
A549 = test system: A549
SNB-75 = test system: SNB-75
TK-10 = test system: TK-10
SN12C = test system: SN12C
RXF 393 = test system: RXF 393
HCT-116 = test system: HCT-116
HOP-62 = test system: HOP-62
SNB-78 = test system: SNB-78
U-251 = test system: U-251
HL-60 = test system: HL-60
SW-620 = test system: SW-620
SF-539 = test system: SF-539

Q: For CN(CCN(C)C(=O)CCn1ccc(=O)[nH]c1=O)C(=O)CCn1ccc(=O)[nH]c1=O, which GI50 (SF-295) is on record?
A: The GI50 was > 100 µM (inactive).

Q: And the GI50 (SK-MEL-5)?
A: The GI50 was > 100 µM (inactive).

Q: What about the GI50 (OVCAR-8) of the same compound?
A: Its GI50 is > 100 µM (inactive).

Q: And the GI50 (NCI-H23)?
A: Its GI50 is > 100 µM (inactive).

Q: What about the GI50 (LOX IMVI) of the same compound?
A: Its GI50 is > 100 µM (inactive).

Q: What about the GI50 (CCRF-CEM) of the same compound?
A: Its GI50 is > 100 µM (inactive).

Q: What about the GI50 (SK-MEL-2) of the same compound?
A: Its GI50 is > 100 µM (inactive).

Q: What about the GI50 (HCC 2998) of the same compound?
A: Its GI50 is > 100 µM (inactive).

Q: And the GI50 (IGROV-1)?
A: The GI50 was > 100 µM (inactive).

Q: What about the GI50 (DMS-273) of the same compound?
A: The GI50 was > 100 µM (inactive).

Q: And the GI50 (NCI-H522)?
A: The GI50 was > 100 µM (inactive).

Q: And the GI50 (ACHN)?
A: The GI50 was > 100 µM (inactive).

Q: What about the GI50 (KM-20L2) of the same compound?
A: The GI50 was > 100 µM (inactive).

Q: And the GI50 (XF498)?
A: The GI50 was > 100 µM (inactive).

Q: And the GI50 (RPMI-8226)?
A: Its GI50 is > 100 µM (inactive).

Q: What about the GI50 (UACC-62) of the same compound?
A: The GI50 was > 100 µM (inactive).

Q: What about the GI50 (786-0) of the same compound?
A: Its GI50 is > 100 µM (inactive).

Q: What about the GI50 (Malme-3M) of the same compound?
A: The GI50 was > 100 µM (inactive).

Q: And the GI50 (UO-31)?
A: The GI50 was > 100 µM (inactive).

Q: And the GI50 (SF-268)?
A: Its GI50 is > 100 µM (inactive).

Q: And the GI50 (MOLT-4)?
A: Its GI50 is > 100 µM (inactive).

Q: And the GI50 (M14)?
A: The GI50 was > 100 µM (inactive).

Q: And the GI50 (SR)?
A: Its GI50 is > 100 µM (inactive).

Q: And the GI50 (OVCAR-4)?
A: The GI50 was > 100 µM (inactive).

Q: What about the GI50 (NCI-H460) of the same compound?
A: Its GI50 is > 100 µM (inactive).

Q: What about the GI50 (KM12) of the same compound?
A: Its GI50 is > 100 µM (inactive).

Q: And the GI50 (K562)?
A: The GI50 was > 100 µM (inactive).

Q: What about the GI50 (COLO 205) of the same compound?
A: The GI50 was > 100 µM (inactive).

Q: What about the GI50 (M19-MEL) of the same compound?
A: Its GI50 is > 100 µM (inactive).

Q: And the GI50 (SK-MEL-28)?
A: The GI50 was > 100 µM (inactive).

Q: And the GI50 (LXFL 529)?
A: Its GI50 is > 100 µM (inactive).

Q: And the GI50 (OVCAR-5)?
A: The GI50 was > 100 µM (inactive).

Q: And the GI50 (HT-29)?
A: The GI50 was > 100 µM (inactive).

Q: And the GI50 (NCI-H226)?
A: Its GI50 is > 100 µM (inactive).

Q: And the GI50 (SNB-19)?
A: The GI50 was > 100 µM (inactive).

Q: What about the GI50 (OVCAR-3) of the same compound?
A: The GI50 was > 100 µM (inactive).

Q: And the GI50 (EKVX)?
A: The GI50 was > 100 µM (inactive).

Q: What about the GI50 (HCT-15) of the same compound?
A: The GI50 was > 100 µM.

Q: What about the GI50 (DMS-114) of the same compound?
A: The GI50 was > 100 µM (inactive).

Q: What about the GI50 (A549) of the same compound?
A: Its GI50 is > 100 µM (inactive).

Q: And the GI50 (SNB-75)?
A: The GI50 was 22.4 µM (inactive).

Q: And the GI50 (TK-10)?
A: The GI50 was > 100 µM (inactive).

Q: What about the GI50 (SN12C) of the same compound?
A: Its GI50 is > 100 µM (inactive).

Q: What about the GI50 (RXF 393) of the same compound?
A: Its GI50 is > 100 µM (inactive).

Q: What about the GI50 (HCT-116) of the same compound?
A: The GI50 was > 100 µM (inactive).

Q: And the GI50 (HOP-62)?
A: Its GI50 is > 100 µM (inactive).

Q: What about the GI50 (SNB-78) of the same compound?
A: The GI50 was > 100 µM (inactive).

Q: What about the GI50 (U-251) of the same compound?
A: The GI50 was > 100 µM (inactive).

Q: What about the GI50 (HL-60) of the same compound?
A: Its GI50 is > 100 µM (inactive).

Q: What about the GI50 (SW-620) of the same compound?
A: The GI50 was > 100 µM (inactive).

Q: And the GI50 (SF-539)?
A: Its GI50 is > 100 µM (inactive).
